Test results: patent EP3156398A1, “AGONISTS OF THE CHEMOKINE RECEPTOR CXCR3” (Friedrich-Alexander-Universität Erlangen-Nürnberg, priority 2015, dated 2017)
Entries after “also recorded” stand apart in the source; their conditions may differ.

Tests used:
FLAG-CXCR3 = molecular target: T1, FLAG-CXCR3 (Homo sapiens, UniProt P49682); assay: ELISA based internalization assay; format: cell-based; conditions: CXCL11 100 nM, modulators 10 µM, 1h at 37°C; Figure 4B
T1 construct: expressed in transfected cells; host or cells: HEK293T cells, transient
T1 sequence (P49682 1-368): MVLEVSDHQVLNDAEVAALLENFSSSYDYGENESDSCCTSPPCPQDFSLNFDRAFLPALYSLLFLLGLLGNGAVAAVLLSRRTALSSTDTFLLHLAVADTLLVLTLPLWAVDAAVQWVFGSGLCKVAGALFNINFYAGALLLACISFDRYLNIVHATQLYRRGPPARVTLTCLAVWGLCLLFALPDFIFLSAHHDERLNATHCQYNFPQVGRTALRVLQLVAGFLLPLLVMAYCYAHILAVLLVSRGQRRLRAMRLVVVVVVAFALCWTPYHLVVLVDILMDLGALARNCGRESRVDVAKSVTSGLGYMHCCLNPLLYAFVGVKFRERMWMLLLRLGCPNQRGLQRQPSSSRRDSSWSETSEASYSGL
Protocol: Enzyme-linked immunosorbent assay based internalization assay. The day after transfection with FLAG-CXCR3, cells were trypsinized, resuspended into fresh culture medium and plated in poly(D-lysine)-coated 48-well assay plates. 48h after transfection the medium was replaced by fresh DMEM w/o serum containing one concentration of the endogenous ligand CXCL11 (100 nM) or the positive allosteric modulators (10 µM) and incubated for 1h at 37°C. The cells were fixed with 4% formaldehyde solution and stained with monoclonal Anti-Flag antibody (Sigma-Aldrich Life Science, St. Louis, MO) and subsequently with Anti-Mouse IgG-Peroxidase Antibody produced in rabbit. […] The reaction was stopped with 1M H2SO4 and the resulting color was detected at 492 nm using a microplate reader Clariostar (BMG labtech, Ortenberg, Germany).
The effect of FAUC1036 on receptor internalization was investigated by scanning laser confocal microscopy and ELISA-based assay. […] The quantification of receptor internalization upon the treatment with the endogenous agonists and with either β-arrestin 2 biased FAUC1036 or G-protein biased FAUC1104 was performed with ELISA based assay. The HEK293T cells transiently expressing FLAG-CXCR3 were stimulated with compounds and chemokines for one hour, washed, fixed and the amount of FLAG-CXCR3 present on the surface was detected by anti-FLAG antibody.

CXCR3 = molecular target: T2, CXCR3 (Homo sapiens, UniProt P49682); assay: [35S]GTPγS incorporation assay; format: biochemical; conditions: for CXCR3 Efficacy (%) ± SEM: % of CXCL11 mediated effect; for CXCR3 Efficacy (%) ± SEM / CXCR3 pEC50 ± SEM: membrane preparations of HEK293T stably expressing CXCR3; for CXCR3 mediated G protein activation (result in words): [35S]GTPγS incorporation; for CXCR3 pEC50 ± SEM: mean of three experiments in triplicate
T2 construct: expressed in transfected cells; host or cells: HEK293 / HEK293T cells, stably transfected; membrane preparations
T2 sequence (P49682 1-368): T1 sequence (P49682 1-368)
How it was run: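 Membranes from HEK293 cells stably expressing human CXCR3 (30 µg/mL protein) preincubated 30 min at 37 °C with test compound, CXCL11 and 1 µM GDP in HEPES/MgCl2/NaCl/saponin buffer, pH 7.4. Then 0.10 nM [35S]GTPγS added for 30 min at 37 °C; filter-bound radioactivity counted, triplicates, 3–4 experiments.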

Row | CXCR3 Efficacy (%) ± SEM (CXCR3) | CXCR3 pEC50 ± SEM (CXCR3) | Compound | receptor internalization (ELISA quantification) (FLAG-CXCR3) | CXCR3 mediated G protein activation (result in words) (CXCR3; listed as 11/FAUC1036) | CXCR3 mediated G protein activation (result in words) (CXCR3; listed as FAUC1036) | CXCR3 Efficacy (%) ± SEM (CXCR3; listed as 14/FAUC1104) | CXCR3 Efficacy (%) ± SEM (CXCR3; listed as FAUC1104) | CXCR3 pEC50 ± SEM (CXCR3; listed as 14/FAUC1104) | CXCR3 pEC50 ± SEM (CXCR3; listed as FAUC1104) | Emax (CXCR3; read-out: CXCR3 Efficacy (%) ± SEM)
1 | No effect | No effect | CC(C)(C)OC(=O)N[C@@H](CCCCNC(=O)[C@@H]1Cc2ccccc2CN1C(=O)CCC(=O)c1ccccc1)C(=O)NCC(c1ccccc1)c1ccccc1 [Compound 11, Tert-butyl ((S)-1-((2,2-diphenylethyl)amino)-1-oxo-6-((S)-2-(4-oxo-4-phenylbutanoyl)-1,2,3,4-tertahydroisoquinoline-3-carboxamido)hexan-2-yl)carbamate] | induced receptor internalization | failed to induce CXCR3 mediated G protein activation | without any activation of G proteins; also recorded: has no effect on the G-protein signalling | – | – | – | – | –
2 | – | – | COc1ccc(C(=O)CCC(=O)N2Cc3ccccc3C[C@H]2C(=O)NCCCC[C@H](NC(=O)OC(C)(C)C)C(=O)NCC(c2ccccc2)c2ccccc2)cc1 [Compound 14, Tert-butyl ((S)-1-((2,2-diphenylethyl)amino)-6-((S)-2-(4-(4-methoxyphenyl)-4-oxobutanoyl)-1,2,3,4-tetrahydroisoquinoline-3-carboxamido)-1-oxohexan-2-yl)carbomate] | does not induce receptor internalization | – | – | 50±19% | 50% | 5.22±0.31 | 5.22 | 50%
